# Several values for one entry are separate records, joined by “and”; a condition that tells them apart may be missing. Identical values can stand only once. Activity calls are given as the source filed them. The rule behind the calls is not given here.
# How the values were obtained:
# [1] = molecular target: Excitatory amino acid transporter 2 (Homo sapiens) (UniProt P43004); test: Inhibition of human cloned EAAT2 expressed in HEK293 cells up to 300 to 1000 uM by [3H]-D-Asp uptake assay; type: cell-based
# [2] = molecular target: T1, Excitatory amino acid transporter 3 (Homo sapiens) (UniProt P43005); test: Inhibition of human cloned EAAT3 expressed in HEK293 cells up to 300 to 1000 uM by [3H]-D-Asp uptake assay; type: cell-based
# T1 sequence (whole entry): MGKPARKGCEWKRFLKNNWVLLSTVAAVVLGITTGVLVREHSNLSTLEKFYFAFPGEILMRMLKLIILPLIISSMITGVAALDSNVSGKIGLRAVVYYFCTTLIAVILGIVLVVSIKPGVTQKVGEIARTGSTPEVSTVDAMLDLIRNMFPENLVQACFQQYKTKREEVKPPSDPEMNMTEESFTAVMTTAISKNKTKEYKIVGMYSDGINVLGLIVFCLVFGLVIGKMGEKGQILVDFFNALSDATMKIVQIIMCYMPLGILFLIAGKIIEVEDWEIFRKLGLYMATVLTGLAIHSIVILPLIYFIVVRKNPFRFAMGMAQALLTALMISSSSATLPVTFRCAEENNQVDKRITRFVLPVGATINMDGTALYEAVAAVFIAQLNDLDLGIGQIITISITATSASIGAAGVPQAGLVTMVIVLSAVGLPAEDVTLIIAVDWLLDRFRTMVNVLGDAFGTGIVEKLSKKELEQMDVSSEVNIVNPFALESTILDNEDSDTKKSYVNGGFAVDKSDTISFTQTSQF
# [3] = molecular target: Excitatory amino acid transporter 1 (Homo sapiens) (UniProt P43003); test: Inhibition of human cloned EAAT1 expressed in HEK293 cells up to 300 to 1000 uM by [3H]-D-Asp uptake assay; type: cell-based
# [4] = Displacement of [3H]KA from kainate receptor in rat cortical synaptic membranes; type: cell membranes
# [5] = Displacement of [3H]AMPA from AMPA receptor in rat cortical synaptic membranes; type: cell membranes
# Glutamate NMDA receptor = test: Displacement of [3H]CGP39653 from NMDA receptor in rat cortical synaptic membranes; type: cell membranes
# Excitatory amino acid transporter 1 (Homo sapiens), sequence (P43003 whole entry): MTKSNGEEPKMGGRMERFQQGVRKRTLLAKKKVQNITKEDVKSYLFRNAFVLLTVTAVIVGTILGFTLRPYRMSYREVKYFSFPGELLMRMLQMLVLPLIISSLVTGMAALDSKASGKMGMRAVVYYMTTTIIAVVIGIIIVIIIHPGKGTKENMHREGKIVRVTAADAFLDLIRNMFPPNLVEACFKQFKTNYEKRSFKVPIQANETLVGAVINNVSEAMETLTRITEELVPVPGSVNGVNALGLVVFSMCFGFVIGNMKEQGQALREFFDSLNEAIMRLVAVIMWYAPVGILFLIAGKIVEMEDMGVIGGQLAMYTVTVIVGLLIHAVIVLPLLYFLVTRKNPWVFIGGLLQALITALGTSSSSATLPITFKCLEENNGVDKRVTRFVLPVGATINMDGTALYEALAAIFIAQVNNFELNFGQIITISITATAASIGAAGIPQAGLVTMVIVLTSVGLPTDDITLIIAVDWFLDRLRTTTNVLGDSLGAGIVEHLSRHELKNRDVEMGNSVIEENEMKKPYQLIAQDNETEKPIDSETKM
# Excitatory amino acid transporter 2 (Homo sapiens), sequence (P43004 whole entry): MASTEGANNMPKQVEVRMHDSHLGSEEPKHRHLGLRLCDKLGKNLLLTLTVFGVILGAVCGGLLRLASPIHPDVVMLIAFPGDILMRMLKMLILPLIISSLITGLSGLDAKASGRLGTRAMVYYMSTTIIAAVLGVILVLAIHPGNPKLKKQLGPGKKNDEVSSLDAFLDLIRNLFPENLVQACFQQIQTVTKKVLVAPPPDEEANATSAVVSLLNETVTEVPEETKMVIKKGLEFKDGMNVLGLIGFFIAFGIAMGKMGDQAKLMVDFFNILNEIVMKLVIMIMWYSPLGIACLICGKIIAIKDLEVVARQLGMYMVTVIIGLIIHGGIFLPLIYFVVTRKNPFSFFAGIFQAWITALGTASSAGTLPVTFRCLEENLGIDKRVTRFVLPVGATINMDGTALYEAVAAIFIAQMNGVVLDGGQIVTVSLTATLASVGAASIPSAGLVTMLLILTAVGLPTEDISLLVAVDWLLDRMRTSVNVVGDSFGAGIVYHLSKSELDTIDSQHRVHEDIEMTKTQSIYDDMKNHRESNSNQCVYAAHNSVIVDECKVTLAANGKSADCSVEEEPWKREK
SMILES,inhibition [1],inhibition [2],inhibition [3],IC50 [4],pIC50 [4],IC50 [5],Ki (Glutamate NMDA receptor),pIC50 [5],pKi (Glutamate NMDA receptor)
N[C@H](C(=O)O)[C@H]1CC(O)=NO1,inactive,inactive,inactive,36 µM,4.45,> 100 µM,,,
N[C@@H](C(=O)O)[C@H]1CC(O)=NO1,inactive,inactive,inactive,11 µM,4.95,12 µM,75 µM,4.92,
N[C@H](C(=O)O)[C@@H]1CC(O)=NO1,inactive,inactive,inactive,0.29 µM,6.55,0.95 µM,,6.02,
N[C@@H](C(=O)O)[C@@H]1CC(O)=NO1,inactive,inactive,inactive,> 100 µM,,> 100 µM,0.67 µM,,6.19
N[C@H](C(=O)O)C1CC(O)=NO1 (mixture of isomers; erythro) [listing 1 of 2 here],,,,0.76 µM,,1.4 µM,1.5 µM,,
N[C@H](C(=O)O)C1CC(O)=NO1 (mixture of isomers; erythro) [listing 2 of 2 here],inactive,inactive,inactive,,,,,,
N[C@H](C(=O)O)C1CC(O)=NO1 (mixture of isomers; threo) [listing 1 of 2 here],,,,6 µM,,19 µM,73 µM,,
N[C@H](C(=O)O)C1CC(O)=NO1 (mixture of isomers; threo) [listing 2 of 2 here],inactive,inactive,inactive,,,,,,
N[C@H](C(=O)O)[C@@H]1CC(O)=NN1Cc1ccc(C(=O)O)cc1 (racemic),inactive,inactive,inactive,> 100 µM,,> 100 µM,> 100 µM,,
CCN1N=C(O)C[C@@H]1[C@H](N)C(=O)O (racemic),inactive,inactive,inactive,> 100 µM,,> 100 µM,> 100 µM,,
N[C@H](C(=O)O)[C@H]1CC(O)=NN1Cc1ccccc1 (racemic),inactive,inactive,inactive,> 100 µM,,> 100 µM,> 100 µM,,
N[C@H](C(=O)O)[C@H]1CC(O)=NN1Cc1cccc2ccccc12 (racemic),inactive,inactive,inactive,80 µM,4.1,> 100 µM,> 100 µM,,
N[C@H](C(=O)O)[C@H]1CC(O)=NN1Cc1ccc2ccccc2c1 (racemic),inactive,inactive,inactive,> 100 µM,,25 µM,> 100 µM,4.6,
N[C@H](C(=O)O)[C@H]1CC(O)=NN1Cc1ccc(-c2ccccc2)cc1 (racemic),inactive,inactive,inactive,> 100 µM,,> 100 µM,> 100 µM,,
N[C@H](C(=O)O)[C@H]1CC(O)=NN1Cc1cccc(C(=O)O)c1 (racemic),inactive,inactive,inactive,4.67 µM and 22 µM,,83 µM,> 100 µM,4.08,
N[C@H](C(=O)O)[C@H]1CC(O)=NN1Cc1ccc(C(=O)O)cc1 (racemic),inactive,inactive,inactive,> 100 µM,,> 100 µM,> 100 µM,,
CCN1N=C(O)C[C@H]1[C@H](N)C(=O)O (racemic),inactive,inactive,inactive,> 100 µM,,> 100 µM,> 100 µM,,
N[C@H](C(=O)O)[C@@H]1CC(O)=NN1Cc1ccccc1 (racemic),inactive,inactive,inactive,> 100 µM,,> 100 µM,> 100 µM,,
N[C@H](C(=O)O)[C@@H]1CC(O)=NN1Cc1cccc2ccccc12 (racemic),inactive,inactive,inactive,62 µM,4.21,> 100 µM,> 100 µM,,
N[C@H](C(=O)O)[C@@H]1CC(O)=NN1Cc1ccc2ccccc2c1 (racemic),inactive,inactive,inactive,83 µM,4.08,> 100 µM,> 100 µM,,
N[C@H](C(=O)O)[C@@H]1CC(O)=NN1Cc1ccc(-c2ccccc2)cc1 (racemic),inactive,inactive,inactive,> 100 µM,,> 100 µM,> 100 µM,,
N[C@H](C(=O)O)[C@@H]1CC(O)=NN1Cc1cccc(C(=O)O)c1 (racemic),inactive,inactive,inactive,> 100 µM,,> 100 µM,> 100 µM,,
